For data set [1], the system named is Rattus norvegicus. Description: Anti-inflammatory activity in Rattus norvegicus Wistar (rat) assessed as inhibition of carrageenan-induced paw edema at dose molecularly equivalent to 20 mg/kg of ibuprofen administered as po after 3 hr relative to ibuprofen. Format: functional.
For data set [2], the system named is Rattus norvegicus. In words: Gastrointestinal toxicity in Rattus norvegicus Wistar (rat) assessed as ulcer index at dose molecularly equivalent to 60 mg/kg of ibuprofen administered as po. The note with it: in vivo. Details: dose 60 mg/kg, route oral. Format: organism-based.
For data set [3], the system named is Mus musculus. Description: Analgesic activity in Mus musculus Swiss albino (mouse) assessed as protection against acetic acid-induced writhing effect at 20 mg/kg, po after 3 hr relative to control. Format: functional.
For data set [4], the system named is Rattus norvegicus. In words: Anti-inflammatory activity in Rattus norvegicus Wistar (rat) assessed as inhibition of carrageenan-induced paw edema at 20 mg/kg, po after 3 hr relative to control. Format: functional. (Carrageenan injected into the paw causes an acute inflammation.)
Data set [5] concerns Rattus norvegicus. In words: Gastrointestinal toxicity in Rattus norvegicus Wistar (rat) assessed as ulcer index at 60 mg/kg, po. Format: organism-based. Details: dose 60 mg/kg, route oral. The note with it: in vivo.

What is called inhibition in vivo is the drop in the measured response relative to a control, in per cent.

In the case of `Cc1ccc(N2COc3ccc(C(=O)/C=C/c4ccc(Cl)cc4Cl)cc3C2)cc1`, the inhibition in vivo in data set [1] worked out at 71.9%. Moreover, the UI in data set [2] was determined as 0.17. Moreover, the Activity in data set [3] worked out at 55.47%.

In the case of `Cc1ccc(N2COc3ccc(C(=O)/C=C/c4ccccc4Cl)cc3C2)cc1`, the inhibition in vivo in data set [1] came to 60.4%.

In the case of `COc1cc(/C=C/C(=O)c2ccc3c(c2)CN(c2ccc(C)cc2)CO3)cc(OC)c1OC`, in data set [1], the inhibition in vivo is 56.5%.

In the case of `COc1ccc(/C=C/C(=O)c2ccc3c(c2)CN(c2ccc(OC)cc2)CO3)cc1`, the inhibition in vivo in data set [1] amounted to 61.2%.

With `COc1ccc(N2COc3ccc(C(=O)/C=C/c4cc(OC)c(OC)c(OC)c4)cc3C2)cc1`, in data set [1], the inhibition in vivo stood at 62.2%.

Consider `CC(C)Cc1ccc(C(C)C(=O)O)cc1` (stereo not drawn) [IBUPROFEN], for which the inhibition in vivo at 20 mg/kg in data set [4] worked out at 82.3%. The UI in data set [5] is 1. The Activity in data set [3] amounted to 63.06%.

`Cc1ccc(N2COc3ccc(C(=O)/C=C/c4ccc(Cl)cc4)cc3C2)cc1`: the inhibition in vivo in data set [1] turned out to be 63.4%.

Consider `COc1ccc(N2COc3ccc(C(=O)/C=C/c4ccc(Cl)cc4Cl)cc3C2)cc1`, for which the inhibition in vivo in data set [1] amounted to 74.9%. Besides, the UI in data set [2] was determined as 0.08. Also, the Activity in data set [3] is listed as 57.38%.

With `Cc1ccc(N2COc3ccc(C(=O)/C=C/c4ccccc4O)cc3C2)cc1`, the inhibition in vivo in data set [1] was determined as 51%.

With `COc1ccc(N2COc3ccc(C(=O)/C=C/c4ccccc4O)cc3C2)cc1`, the inhibition in vivo in data set [1] was determined as 55.7%.

For the molecule `COc1ccc(/C=C/C(=O)c2ccc3c(c2)CN(c2ccc(C)cc2)CO3)cc1`, the inhibition in vivo in data set [1] stood at 70.4%. Further, the UI in data set [2] is given as 0.17. Besides, in data set [3], the Activity came to 54.27%.

In the case of `COc1ccc(N2COc3ccc(C(=O)/C=C/c4ccc(Cl)cc4)cc3C2)cc1`, in data set [1], the inhibition in vivo is 67.4%. The UI in data set [2] is 0.25. Moreover, the Activity in data set [3] was determined as 52.22%.

On to `COc1ccc(N2COc3ccc(C(=O)/C=C/c4ccccc4Cl)cc3C2)cc1`, for which the inhibition in vivo in data set [1] came to 63.4%.

Values taken from ChEMBL document CHEMBL3046542, “Synthesis of some new 3,4-dihydro-2H-1,3-benzoxazines under microwave irradiation in solvent-free conditions and their biological activity” (Med Chem Res, 2011).
